Patent US6344203B1, “Mimicking peptides in cancer therapy” (The Austin Research Institute, priority 1995, dated 2002)
Like-named read-outs stand apart in the source and are kept apart here. No end group written: not given here.

Assays:
IB4 lectin [1] = target: T1, IB4 lectin (Griffonia simplicifolia, UniProt Q8W1R6); test: Elisa: inhibition of IB4 lectin binding to Galα(1,3)Gal-BSA; conditions: for Inhibition of binding of IB4 to Galα(1,3)Gal-BSA / Inhibition of IB4 lectin binding to Galα(1,3)Gal-BSA (in words): Elisa; for Inhibition of binding of IB4 to Galα(1,3)Gal-BSA: peptide concentration 5 mM (FIG. 8a); for Inhibition of IB4 lectin binding to Galα(1,3)Gal-BSA (in words): varying concentrations of inhibitor
T1 sequence (Q8W1R6 1-247): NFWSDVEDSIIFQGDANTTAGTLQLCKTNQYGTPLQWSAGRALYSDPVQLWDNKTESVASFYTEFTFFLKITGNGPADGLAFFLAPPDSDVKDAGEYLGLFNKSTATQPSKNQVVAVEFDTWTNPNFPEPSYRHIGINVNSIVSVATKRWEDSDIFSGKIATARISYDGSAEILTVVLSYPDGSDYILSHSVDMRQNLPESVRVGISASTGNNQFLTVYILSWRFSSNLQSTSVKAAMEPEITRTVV
Method: (§1) 50 μl of either purified anti-Galα(1,3)Ga IgG or biotinylated IB4 lectin was added to the wells, incubated for 45 minutes at 22° C., washed with PBS-0.05% Tween 20, and 50 μl of the relevant IIRP conjugate added and incubated for a further 45 minutes before washing and the addition of 50 μl of substrate (2,2′ Azino-di-B-ethylbenzthiozoline (Zymed, San Francisco, Calif.)) and reading the OD405.
(§2) An Elisa was established to calculate the relative “affinity” of the Gal pep 1 (SEQ ID No. 1) for the IB4 lectin and for human anti-Galα(1,3)Gal antibodies, and to compare these with the affinities for α-galactosyl sugars.
(§3) Peptides or carbohydrates were examined cytofluorographically for their ability to inhibit antibody/lectin binding to the cell surface using a FACSCAN flow cytometer (Becton Dickinson, USA)[20]: 25 μl of inhibitor was mixed with 25 μl of antibody of lectin and incubated at 22° C. for 3 hours (peptides) or at 4° C. for 16 hours (carbohydrates)[14], prior to addition of appropriate targets. An Elisa assay was used to calculate the relative affinities of the sugars or the peptides for both IB4 lectin and antibodies, and were defined as the molar concentration of inhibitor giving 50% inhibition of the maximal binding of lectin or antibody.

PIEC cells = test: Inhibition of cytotoxicity of NHS and complement on PIEC; type: cell-based, pig; conditions: peptide 10 mM to 2.5 mM, NHS 1/25
Text: FIG. 4. Inhibition of cytotoxicity due to natural antibody and complement by Gal pep 1 (SEQ ID No. 1). Varying concentrations of Gal pep 1 (∘) or CD48 pep 1 (♦) (shown in mM on horizontal axis) were examined in a cytotoxicity assay using NHS (final dilution of 1/25) and PEEC cells as targets.
(§4) The binding of lectin or antibody to the surface of pig cells was detected by hemagglutination, cytotoxicity or flow cytometry using the FACSCAN flow cytometer (Becton Dickinson, Mountain View, Calif.).
Human cytotoxic antibodies directly damage pig endothelial cells in a pig-to-human xenograft, therefore the ability of Gal pep 1 (SEQ ID No. 1) to inhibit the cytotoxicity of human antibodies on PIEC in vitro was tested; Gal pep 1 inhibited the cytotoxicity of NHS (10 mM to 2.5 mM), whereas CD48 pep 1 (SEQ ID No. 11) had no effect (FIG. 4).

IB4 lectin [2] = target: T1, IB4 lectin; test: Cytofluorographic inhibition of IB4 lectin binding to PIEC cells; type: cell-based
Method: FIGS. 3(A-C). […] (A); Staining of PIEC cells with IB4 lectin (1 μg/ml). (B) Staining of PIEC cells with NHS (final dilution of 1/50) and anti-human Ig. (C) Staining of PBL with IB4 lectin (μg/ml). Peptides were used at 5 mM (A and C) or at 20 mM (B). In each panel profile “a” represents binding in the presence of Gal pep 1 (SEQ ID No. 1), and profile “b” the binding in the presence of CD48 pep 1 (SEQ ID No. 11).
FIGS. 6(A-B). […] Varying concentrations of peptides (shown in mM on horizontal axis) were explained for ability to inhibit the binding of IB4 lectin (1 μg/ml) to tie PIEC cells using cytofluorographic analysis. (a) Gal pep 1 (SEQ ID No. 1) (□), Muc pep 1 (SEQ ID No. 15) (∘).
FIG. 7. […] All peptides used at 5 mM, using cytofluorograhic analysis. Inhibition calculated relative to no peptide control.
as §4, §3

[3] = tested on: human anti-Galα(1,3)Gal IgG antibodies; test: Elisa: inhibition of anti-Galα(1,3)Gal IgG binding to Galα(1,3)Gal-BSA; conditions: for Inhibition of binding of anti-Galα(1,3)Gal IgG to Galα(1,3)Gal-BSA / Inhibition of anti-Galα(1,3)Gal IgG binding to Galα(1,3)Gal-BSA (in words): Elisa; for Inhibition of binding of anti-Galα(1,3)Gal IgG to Galα(1,3)Gal-BSA: peptides at 5 mM (FIG. 8b); for Inhibition of anti-Galα(1,3)Gal IgG binding to Galα(1,3)Gal-BSA (in words): varying concentrations of inhibitor
Method: as §1, §2, §3

[4] = target: IB4 lectin from Griffonia simplicifolia (Griffonia simplicifolia); test: competition ELISA (I50): peptide inhibits biotinylated IB4 binding to Galα(1,3)Gal-BSA
[5] = target: purified human anti-Galα(1,3)Gal IgG antibodies (human); test: competition ELISA (I50): peptide inhibits anti-Galα(1,3)Gal IgG binding to Galα(1,3)Gal-BSA
[6] = target: human natural antibodies in normal human serum (NHS) (human); test: cell-based or functional assay
[7] = target: IB4 lectin from Griffonia simplicifolia (Griffonia simplicifolia); test: flow cytometry, IB4 on pig PBL
[8] = target: IB4 lectin from Griffonia simplicifolia (Griffonia simplicifolia); test: inhibition of IB4 reaction with galactomannan (not shown)
[9] = target: BC1 anti-MUC1 monoclonal antibody; test: flow cytometry, competition with MUC1 on MUC1+3T3 (MOR5) cells
[10] = target: human natural antibodies in normal human serum (NHS) (human); test: flow cytometry, NHS (1/50) natural antibodies on PIEC cells; no inhibition at lower concentrations
[11] = target: IB4 lectin from Griffonia simplicifolia (Griffonia simplicifolia); test: flow cytometry, IB4 (1 µg/ml) on PIEC cells
[12] = varying peptide concentrations (FIG. 6b)
[13] = Table 3, anti-Galα(1,3)Gal antibody (IgG) 87 μgs/ml, read-out: I50 Anti-Galα(1,3)Gal
[14] = Table 1, anti-Galα(1,3)Gal IgG 87 μg/ml, concentration giving 50% inhibition of binding, read-out: I50 anti-Galα(1,3)Gal IgG

YTFDQKIVEWDSRKSKC [CD48 pep 1]
IC50 (IB4 lectin [1]): > 20000 µM
IC50 (IB4 lectin [1]; read-out: I50 IB4, Table 3, biotinylated IB4 lectin 6.25 μgs/ml): > 20000 µM
Inhibition of cytotoxicity of NHS on PIEC (PIEC cells): had no effect

PAPGSTAPPAHGVTSA [Muc pep 5]
Inhibition of binding of IB4 to Galα(1,3)Gal-BSA (IB4 lectin [1]): complete inhibition
Inhibition of IB4 lectin binding to PIEC cells (IB4 lectin [2]; [12]): partial inhibition

RYHHYSSNFSIPKANHSHSGDYYCKGSL [FcR pep 1, control peptide, MURINE FCRIIβ2]
Inhibition of binding of anti-Galα(1,3)Gal IgG to Galα(1,3)Gal-BSA [3]: had no effect

KYPTTTPISTTTMVTPTPTPTGTQTPTTT [Muc pep 9, human Muc2 VNTR]
Inhibition of binding of IB4 to Galα(1,3)Gal-BSA (IB4 lectin [1]): no inhibition
Inhibition of IB4 lectin binding to PIEC cells (IB4 lectin [2]; peptides at 5 mM (FIG. 7)): did not inhibit

CHSTPSFTSSITTTETTS [Muc pep 10, human Muc3 VNTR]
Inhibition of IB4 lectin binding to PIEC cells (IB4 lectin [2]; peptides at 5 mM (FIG. 7)): inhibited

TGFNQYKTEAASRVNL [Muc pep 8, human Muc1 COOH to VNTR]
Inhibition of IB4 lectin binding to PIEC cells (IB4 lectin [2]; peptides at 5 mM (FIG. 7)): inhibited

RSSVPSSTEKNAVSMTSSVL [Muc pep 7, human Muc1 NH2 to VNTR]
Inhibition of binding of IB4 to Galα(1,3)Gal-BSA (IB4 lectin [1]): no inhibition
Inhibition of IB4 lectin binding to PIEC cells (IB4 lectin [2]; peptides at 5 mM (FIG. 7)): did not

TSSASTGHATPLPVTP [Muc pep 11]
Inhibition of binding of IB4 to Galα(1,3)Gal-BSA (IB4 lectin [1]): complete inhibition
Inhibition of binding of anti-Galα(1,3)Gal IgG to Galα(1,3)Gal-BSA [3]: inhibited
IC50 [3, 13]: 2500 µM
Inhibition of IB4 lectin binding to PIEC cells (IB4 lectin [2]; peptides at 5 mM (FIG. 7)): inhibited

CC(C)[C@H](NC(=O)[C@H](CO)NC(=O)[C@H](CO)NC(=O)[C@H](CCCNC(=N)N)NC(=O)[C@H](CCC(N)=O)NC(=O)[C@@H](NC(=O)[C@H](C)NC(=O)[C@H](CO)NC(=O)[C@@H](NC(=O)[C@H](CCC(=O)O)NC(=O)[C@H](CCCCN)NC(=O)[C@H](CCC(=O)O)NC(=O)CNC(=O)CNC(=O)[C@@H]1CCCN1C(=O)[C@@H](NC(=O)[C@H](CO)NC(=O)[C@H](CO)NC(=O)[C@H](C)NC(=O)[C@H](Cc1c[nH]cn1)NC(=O)CNC(=O)[C@H](CO)NC(=O)CNC(=O)[C@@H](N)[C@@H](C)O)[C@@H](C)O)[C@@H](C)O)[C@@H](C)O)C(=O)N1CCC[C@H]1C(=O)O [Muc pep 6]
Inhibition of binding of IB4 to Galα(1,3)Gal-BSA (IB4 lectin [1]): complete inhibition
Inhibition of IB4 lectin binding to PIEC cells (IB4 lectin [2]; peptides at 5 mM (FIG. 7)): partial inhibition

OCC1OC(OC2C(O)C(O)OC(CO)C2O)C(O)C(O)C1O (stereo not drawn) [Galα(1,3)Gal]
Inhibition of IB4 lectin binding to Galα(1,3)Gal-BSA (in words) (IB4 lectin [1]): inhibited
IC50 (IB4 lectin [1]; Table 1, biotinylated IB4 lectin […], concentration giving 50% inhibition of binding, read-out: I50 IB4): < 30 µM
IC50 (IB4 lectin [1]; read-out: I50 IB4): < 30 µM
Inhibition of anti-Galα(1,3)Gal IgG binding to Galα(1,3)Gal-BSA (in words) [3]: inhibited
IC50 [3, 14]: 30 µM
IC50 [3, 13]: 30 µM

OCC1OC(OCC2OC(O)C(O)C(O)C2O)C(O)C(O)C1O (stereo not drawn) [Melibiose, Galα(1,6)Glc]
Inhibition of IB4 lectin binding to Galα(1,3)Gal-BSA (in words) (IB4 lectin [1]): inhibited
IC50 (IB4 lectin [1]; read-out: I50 IB4): 300 µM
Inhibition of anti-Galα(1,3)Gal IgG binding to Galα(1,3)Gal-BSA (in words) [3]: inhibited
IC50 [3, 14]: 125 to 300 µM

CPAHGVTSAPDTRPAPGSTAP [Muc pep 1]
Inhibition of binding of IB4 to Galα(1,3)Gal-BSA (IB4 lectin [1]): complete inhibition
Inhibition of binding of anti-Galα(1,3)Gal IgG to Galα(1,3)Gal-BSA [3]: inhibited
IC50 [3, 13]: 2500 µM
Inhibition of IB4 lectin binding to PIEC cells (IB4 lectin [2]; to a peptide concentration of 0.125 mM (FIG. 6a)): almost complete inhibition

LSGVRFSAARTAHPLPQKH [TNF pep 1, control peptide, MURINE TNFβ]
Inhibition of binding of IB4 to Galα(1,3)Gal-BSA (IB4 lectin [1]): did not inhibit

WEADLHWS [Scram pep 1]
IC50 [3, 13]: > 20000 µM

TECKHKKGKVVSGKVLSY [CD4 pep 1, control peptide, murine CD4]
Inhibition of binding of IB4 to Galα(1,3)Gal-BSA (IB4 lectin [1]): did not inhibit
Inhibition of binding of anti-Galα(1,3)Gal IgG to Galα(1,3)Gal-BSA [3]: had no effect

APDTRPAPGSTAPPAH [Muc pep 4]
Inhibition of binding of IB4 to Galα(1,3)Gal-BSA (IB4 lectin [1]): complete inhibition
Inhibition of binding of anti-Galα(1,3)Gal IgG to Galα(1,3)Gal-BSA [3]: partial inhibition
IC50 [3, 13]: 5000 µM
Inhibition of IB4 lectin binding to PIEC cells (IB4 lectin [2]; [12]): partial inhibition

YTFDQKIVEWDSRKSKC [CD48 pep 1]
IC50 [4]: > 20000 µM
IC50 [5]: > 20000 µM

WEADLHWS [Scram pep 1]
IC50 [4]: > 20000 µM
IC50 [5]: > 20000 µM

DAHWESWL [Gal pep 1 (DAHWESWL), synthetic peptide]
blocking of hemagglutination of pig RBC by NHS [6]: 5 mM
peptide concentration that blocked IB4 binding to PBL [7]: 5 mM
IC50 [8]: 5000 µM
lowest peptide concentration that inhibited BC1 binding to MUC1+3T3 cells [9]: 0.156 mM
IC50 [4]: 300 µM
IC50 [5]: 10000 µM
peptide concentration at which inhibition occurred [10]: 20 mM

TGSGHASSTPGGEKETSAQRSSVP [Muc pep 6]
IC50 [4]: 1250 µM

TSSASTGHATPLPVTP [Muc pep 11]
IC50 [4]: 156 µM
IC50 [5]: 2500 µM

CPAHGVTSAPDTRPAPGSTAP [Muc pep 1]
concentration down to which inhibition was almost complete [11]: 0.125 mM
IC50 [4]: 78 µM
IC50 [5]: 2500 µM
